Measurements reported in the Biogen ADME set (Fang et al. 2023).
In brackets after ≈: the same amount, converted by molar mass.

Details: for aqueous solubility: pH 6.8

Row | SMILES | MDR1-MDCK efflux ratio | intrinsic clearance, human liver microsomes [mL/min/kg] | intrinsic clearance, rat liver microsomes [mL/min/kg] | aqueous solubility [µg/mL]
1 | NC(=O)CC1CCN(c2ncccn2)CC1 | 1.01 | ≤ 4.74 | ≤ 10.7 | 58.2 (≈ 264 µM)
2 | O=C(CC1CCCC1)NCc1ccncc1 | – | – | – | 58 (≈ 266 µM)
3 | CCN(CC#N)C(=O)c1nn(-c2ccc(F)cc2)c2c1CCCC2 | 0.712 | 50.2 | 397 | 40.5 (≈ 124 µM)
4 | O=C(Nc1ccc2c3c(cccc13)CC2)c1ccnc(-n2cncn2)c1 | 0.25 | 124 | 164 | 10.7 (≈ 31.4 µM)
5 | COc1cc(OCc2ccccn2)ccc1/C=C/c1cc(/C=C/c2ccc3cc[nH]c3c2)[nH]n1 | – | – | – | 0.61 (≈ 1.36 µM)
6 | CN(Cc1ccc2c(c1)OCO2)Cc1ccccc1C#N | 0.351 | 87.8 | 4100 | 28.1 (≈ 100 µM)
7 | CNc1nc(C)nc(N[C@H]2CCC[C@@H](C(=O)NCc3ccc(C#N)cc3C(F)(F)F)C2)n1 | 108 | 18.4 | 91.3 | –
8 | Cc1ccccc1OC1CCN(C(=O)Nc2ccc3c(c2)ncn3C)CC1 | 8.7 | 11.4 | 54.5 | 26.7 (≈ 73.4 µM)
9 | Cc1nccc(-c2ccc(-c3noc(CN4CCOCC4)n3)cc2)n1 | 0.677 | ≤ 4.74 | 106 | 61 (≈ 181 µM)
10 | CCn1nc(Cc2ccc(OC)cc2)nc1Cc1sc(C)nc1C | 2.11 | 21.4 | 233 | 28.7 (≈ 83.9 µM)
11 | Cc1nc(C2CCN(Cc3ccc(C(F)(F)F)cc3)CC2)n[nH]1 | – | 6 | 14.1 | –
12 | Cc1ccccc1OCCn1c(N)nc2ccccc21 | 1.52 | 19.1 | 1760 | 40.6 (≈ 152 µM)
13 | CN(C)c1ccc(C(=O)N2CCN3C(=O)N(Cc4ccccc4)C(=O)[C@H]3C2)cc1 | 1.61 | 30 | 389 | 13.6 (≈ 34.7 µM)
14 | Cc1csc(N(C(=O)c2ccc(-n3cncn3)c(F)c2)C2CC2)n1 | 0.63 | 16.5 | 215 | 53.3 (≈ 155 µM)
15 | CCCn1cc(NC(=O)Nc2ccc(N3CCSCC3)cc2)cn1 | 7.18 | 44.4 | 808 | –
16 | Cc1ccc(C(=O)NCC#Cc2ccccc2)cn1 | 0.579 | ≤ 4.74 | 18.8 | 44.5 (≈ 178 µM)
17 | COc1ccc(-c2noc([C@@H]3CCCN3Cc3cccnc3)n2)cn1 | 0.759 | 98 | 1240 | 26.2 (≈ 77.7 µM)
18 | O=C(CCN1CCN(C(=O)OCc2cc(Cl)cc(Cl)c2)CC1)c1ccc2[nH]c(=O)oc2c1 | – | 147 | 513 | 4.4 (≈ 9.2 µM)
19 | CC(C)(C)N1CCCN(C(=O)CNc2ccc(C#N)cc2)CC1 | 0.887 | ≤ 4.74 | 65.3 | 50 (≈ 159 µM)

Row | SMILES | MDR1-MDCK efflux ratio | intrinsic clearance, human liver microsomes [mL/min/kg] | intrinsic clearance, rat liver microsomes [mL/min/kg] | aqueous solubility [µg/mL]
20 | COCC(=O)Nc1ccc(C)c(NC(=O)[C@H](OC)c2ccccc2)c1 | 2.8 | 85.2 | 44.9 | –
21 | CN1C(=O)N(CC(=O)Nc2ccccc2-c2ccccc2)C(=O)C1(C)C | 12.9 | 21.4 | 280 | 18.7 (≈ 53.2 µM)
22 | CC(=O)Nc1nc(-c2c(C)cc(C)cc2C)cs1 | 0.559 | 24.9 | 2360 | 19.2 (≈ 73.7 µM)
23 | Cn1cnnc1CCn1ccnc1-c1cc2ccccc2s1 | 134 | ≤ 4.74 | 25.3 | 33 (≈ 106 µM)
24 | CNC(=O)c1cc(-c2ccccc2)no1 | – | – | – | 37 (≈ 183 µM)
25 | Cc1cc(F)ccc1NC(=O)c1cccc2cccnc12 | 0.117 | – | – | 0.44 (≈ 1.57 µM)
26 | CN1CCNc2nc3ccccc3nc21 | 0.671 | 74 | 143 | –
27 | Cc1ccncc1NC(=O)Cc1ccc(F)cc1 | – | ≤ 4.74 | 20.4 | –
28 | COc1cccc(C)c1C(=O)N[C@H](CO)CCSC | 1.7 | 32.5 | 741 | –
29 | Cc1cc(C)c2c(C(=O)N3CC4(CNC(=O)N4)C3)cc(C)nc2c1 | 8.46 | ≤ 4.74 | 30.7 | –
30 | Cc1cccc(OCC(=O)Nc2ccc3c(c2)C(=O)N(c2ccccc2)C3=O)c1 | 15.9 | – | – | 0.41 (≈ 1.06 µM)
31 | Cc1cnccc1NC(=O)COc1ccccc1C#N | – | 12.2 | 302 | –
32 | CC(=O)N1CCN(c2ncc(-c3cc(C)no3)c([C@H]3CCCO3)n2)CC1 | 2.44 | ≤ 4.74 | 22.9 | 68.6 (≈ 192 µM)
33 | N#C/C(=C\c1ccc(O)c(O)c1)C(=O)NCc1ccccc1 | – | – | – | 42.5 (≈ 145 µM)
34 | O=C1CN(C(=O)c2cccc(Oc3cccc(C(F)(F)F)c3)c2)CCN1 | 8.39 | 5.25 | 66.1 | 39 (≈ 107 µM)
35 | CCN(CC)CC(=O)N1CCC(n2c(=O)[nH]c3ccccc32)CC1 | – | ≤ 4.74 | 23.5 | 48.9 (≈ 148 µM)
36 | c1ccc(-n2cnc3cc(NCc4ccccn4)ccc32)cc1 | – | 22.6 | 3200 | 18.4 (≈ 61.3 µM)
37 | CN(CCN(C)C1CCCC1)C(=O)c1ccc(-c2nc[nH]n2)cc1 | – | ≤ 4.74 | 19.6 | 36.8 (≈ 112 µM)
38 | CON(C)C(=O)CCc1c(C)nn(C)c1C | 1.33 | ≤ 4.74 | 28.3 | 34.2 (≈ 152 µM)

Row | SMILES | MDR1-MDCK efflux ratio | intrinsic clearance, human liver microsomes [mL/min/kg] | intrinsic clearance, rat liver microsomes [mL/min/kg] | aqueous solubility [µg/mL]
39 | COc1ccc(-c2cc(C(C)(C)C)nc(-c3ncccn3)n2)cc1 | 1.22 | 21.6 | 75.5 | –
40 | CN(C(=O)CSC(C)(C)C)c1ccccc1C#N | 0.808 | 47.3 | 687 | –
41 | N#C/C(=C\c1cnn(Cc2ccccc2)c1)c1nc2cc(Cl)ccc2c(=O)[nH]1 | 1.17 | – | – | 0.17 (≈ 0.438 µM)
42 | Cc1cc(C(=O)N(C)C2CCSCC2)c(=O)n(C)c1C | 39 | 29.1 | 56.4 | –
43 | Cc1ccc(-n2nc(C(C)(C)C)cc2NC(=O)Nc2ccc(OCCN3CCOCC3)c3ccccc23)cc1 | 6.55 | 373 | 704 | 16.6 (≈ 31.6 µM)
44 | CCCC(=O)NCC(=O)Nc1cnc(N2CCN(C)CC2)nc1 | 10.9 | ≤ 4.74 | ≤ 10.7 | 51.2 (≈ 160 µM)
45 | COc1ccc2c(c1)C(=O)N(c1ccc(C)cc1)C(=O)C2 | – | 29.8 | 368 | –
46 | CC(=O)N1CC[C@H]2O[C@H]3c4ccc(O[C@@H]5O[C@H](CO)[C@@H](O[C@@H]6O[C@H](CO)[C@H](O)[C@H](O)[C@H]6O)[C@H](O)[C@H]5O)cc4OC(C)(C)[C@@H]3C[C@H]2C1 | 0.675 | ≤ 4.74 | ≤ 10.7 | –
47 | CCOc1cccc(CNCCc2c[nH]c3ccccc23)c1 | 0.628 | 90.8 | 1330 | 73 (≈ 248 µM)
48 | COc1cccc2cc(C(N)=S)/c(=N/Nc3ccccc3)oc12 | 0.496 | – | – | 0.45 (≈ 1.38 µM)
49 | CC1CCC(CNC2(CCO)CCOCC2)CC1 (stereo not drawn) | 1.29 | ≤ 4.74 | 1200 | –
50 | CC(C)N(CCCNC(=O)Nc1ccc(C(C)(C)C)cc1)C[C@@H]1O[C@@H](n2cc(Br)c3c(N)ncnc32)[C@H](O)[C@H]1O | 17 | 354 | 2010 | –
51 | COc1ccc(Cc2ncnn2-c2ccc3c(c2)OCO3)c(OC)c1 | 0.614 | 131 | 3040 | 34.9 (≈ 103 µM)
52 | O[C@H]1CC[C@H](Nc2ncc3nc(Nc4c(F)cc(F)cc4F)n([C@H]4CCOC4)c3n2)CC1 | 93.4 | ≤ 4.74 | 10.9 | –
53 | O=C(NCc1cccc(F)c1)c1[nH]nnc1-c1ccccc1 | 1.37 | ≤ 4.74 | 17.4 | 20.9 (≈ 70.7 µM)
54 | Cc1sc2ncnc(OCC(=O)NC3CCCCC3)c2c1C | 1.59 | 34.8 | 377 | 17.2 (≈ 54 µM)
55 | c1ccc(-c2n[nH]c(C3CCN(c4cnc5ccccc5n4)CC3)n2)cc1 | 1.2 | 10.7 | 114 | 6.21 (≈ 17.4 µM)
56 | O=C(NCCc1ccc2c(c1)OCO2)N1CCc2sccc2C1 | 0.646 | 164 | 1240 | 45.5 (≈ 138 µM)
57 | CCn1c(=O)n(CC)c2cc(N)ccc21 | 0.814 | ≤ 4.74 | 20 | 37.5 (≈ 183 µM)
